According to ChEMBL document CHEMBL4507328, “Data for DCP probe BAY-390” (2021):

Columns and labels:
Conditions in all cases: Compound concentration 10.0 uM
[1] = target: Sodium-dependent serotonin transporter (Homo sapiens) (UniProt P31645)
Rattus norvegicus = species on record: Rattus norvegicus
[2] = target: Sigma intracellular receptor 2 (Homo sapiens) (UniProt Q5BJF2)
[3] = target: Beta-3 adrenergic receptor (Homo sapiens) (UniProt P13945)
[4] = target: T1, Muscarinic acetylcholine receptor M4 (Homo sapiens) (UniProt P08173)
T1 sequence (whole entry): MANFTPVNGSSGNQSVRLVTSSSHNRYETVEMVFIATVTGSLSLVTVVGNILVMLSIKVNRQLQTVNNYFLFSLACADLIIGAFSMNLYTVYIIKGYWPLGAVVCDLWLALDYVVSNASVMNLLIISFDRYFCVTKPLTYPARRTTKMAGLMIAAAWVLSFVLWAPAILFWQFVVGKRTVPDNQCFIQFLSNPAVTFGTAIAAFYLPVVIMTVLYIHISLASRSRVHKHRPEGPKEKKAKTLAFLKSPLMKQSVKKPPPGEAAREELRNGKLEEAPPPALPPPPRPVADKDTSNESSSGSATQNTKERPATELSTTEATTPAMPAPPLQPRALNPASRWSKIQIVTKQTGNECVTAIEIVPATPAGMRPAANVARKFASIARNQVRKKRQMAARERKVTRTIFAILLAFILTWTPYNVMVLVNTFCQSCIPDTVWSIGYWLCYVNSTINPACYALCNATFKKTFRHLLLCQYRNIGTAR

[5] = target: Beta-1 adrenergic receptor (Homo sapiens) (UniProt P08588)
Beta-1 adrenergic receptor (Homo sapiens), sequence (P08588 whole entry, looked up): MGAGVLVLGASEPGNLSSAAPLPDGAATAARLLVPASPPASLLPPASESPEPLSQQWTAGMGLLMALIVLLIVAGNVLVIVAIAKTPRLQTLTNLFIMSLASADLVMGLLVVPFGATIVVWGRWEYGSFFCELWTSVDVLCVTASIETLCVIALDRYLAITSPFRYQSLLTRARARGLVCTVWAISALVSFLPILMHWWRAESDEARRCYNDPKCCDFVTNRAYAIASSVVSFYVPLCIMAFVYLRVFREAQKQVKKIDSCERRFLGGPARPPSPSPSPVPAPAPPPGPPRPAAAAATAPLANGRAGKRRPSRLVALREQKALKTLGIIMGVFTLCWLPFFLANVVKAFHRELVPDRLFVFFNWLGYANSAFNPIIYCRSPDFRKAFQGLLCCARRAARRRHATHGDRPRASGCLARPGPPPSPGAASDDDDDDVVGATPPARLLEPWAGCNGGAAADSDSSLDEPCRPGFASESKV

[6] = target: Mu-type opioid receptor (Homo sapiens) (UniProt P35372)
Mu-type opioid receptor (Homo sapiens), sequence (P35372 whole entry): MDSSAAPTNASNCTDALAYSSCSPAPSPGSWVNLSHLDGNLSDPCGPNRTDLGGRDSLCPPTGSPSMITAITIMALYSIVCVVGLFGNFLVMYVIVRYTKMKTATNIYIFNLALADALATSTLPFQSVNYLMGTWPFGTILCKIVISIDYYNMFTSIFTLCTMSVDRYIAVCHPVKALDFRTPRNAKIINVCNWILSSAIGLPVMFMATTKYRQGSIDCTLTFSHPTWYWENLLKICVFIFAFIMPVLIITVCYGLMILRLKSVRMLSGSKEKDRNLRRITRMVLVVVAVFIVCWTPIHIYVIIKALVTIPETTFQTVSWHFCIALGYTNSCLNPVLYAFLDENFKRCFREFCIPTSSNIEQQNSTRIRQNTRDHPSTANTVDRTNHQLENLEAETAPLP

[7] = target: T2, Muscarinic acetylcholine receptor M2 (Homo sapiens) (UniProt P08172)
T2 sequence (whole entry): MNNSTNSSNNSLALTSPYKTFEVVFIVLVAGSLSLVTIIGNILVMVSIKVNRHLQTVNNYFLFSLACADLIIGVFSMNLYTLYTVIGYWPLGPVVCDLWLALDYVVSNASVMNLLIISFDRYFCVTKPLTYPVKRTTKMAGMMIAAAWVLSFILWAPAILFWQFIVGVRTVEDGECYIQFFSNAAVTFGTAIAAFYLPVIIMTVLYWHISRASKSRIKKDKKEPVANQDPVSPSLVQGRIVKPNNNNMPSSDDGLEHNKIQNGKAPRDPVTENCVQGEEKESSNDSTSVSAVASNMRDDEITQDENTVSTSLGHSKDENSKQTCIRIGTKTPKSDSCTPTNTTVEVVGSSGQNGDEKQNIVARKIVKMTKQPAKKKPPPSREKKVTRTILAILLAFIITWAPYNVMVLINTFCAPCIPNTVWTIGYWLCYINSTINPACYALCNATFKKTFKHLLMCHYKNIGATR

[8] = target: Vasopressin V1a receptor (Homo sapiens) (UniProt P37288)
Vasopressin V1a receptor (Homo sapiens), sequence (P37288 whole entry, looked up): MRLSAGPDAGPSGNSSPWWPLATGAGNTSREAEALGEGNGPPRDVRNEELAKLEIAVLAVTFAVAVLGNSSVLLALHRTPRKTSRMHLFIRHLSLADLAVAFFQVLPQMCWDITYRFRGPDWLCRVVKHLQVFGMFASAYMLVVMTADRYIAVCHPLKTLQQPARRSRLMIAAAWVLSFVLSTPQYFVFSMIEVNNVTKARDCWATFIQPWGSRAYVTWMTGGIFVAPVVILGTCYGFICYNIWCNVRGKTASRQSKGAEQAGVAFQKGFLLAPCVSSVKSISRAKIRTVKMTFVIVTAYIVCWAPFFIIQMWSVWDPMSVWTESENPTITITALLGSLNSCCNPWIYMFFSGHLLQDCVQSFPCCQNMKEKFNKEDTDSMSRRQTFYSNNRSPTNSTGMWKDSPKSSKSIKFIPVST

[9] = target: Alpha-1B adrenergic receptor (Homo sapiens) (UniProt P35368)
Alpha-1B adrenergic receptor (Homo sapiens), sequence (P35368 whole entry): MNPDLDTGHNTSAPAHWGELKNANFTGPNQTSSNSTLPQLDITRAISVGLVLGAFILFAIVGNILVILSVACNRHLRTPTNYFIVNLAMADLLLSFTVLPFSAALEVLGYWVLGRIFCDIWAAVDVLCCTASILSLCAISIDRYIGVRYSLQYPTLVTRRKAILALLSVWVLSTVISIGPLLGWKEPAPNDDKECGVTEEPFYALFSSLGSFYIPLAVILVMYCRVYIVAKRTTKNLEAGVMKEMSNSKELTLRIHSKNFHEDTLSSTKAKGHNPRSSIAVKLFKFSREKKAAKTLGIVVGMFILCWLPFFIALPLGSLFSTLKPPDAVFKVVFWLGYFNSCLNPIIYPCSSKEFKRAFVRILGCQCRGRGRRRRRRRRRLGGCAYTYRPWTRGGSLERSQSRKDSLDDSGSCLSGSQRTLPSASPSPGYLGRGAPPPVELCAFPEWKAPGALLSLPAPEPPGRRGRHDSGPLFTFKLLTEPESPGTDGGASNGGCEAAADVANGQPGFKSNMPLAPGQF

[10] = target: T3, Muscarinic acetylcholine receptor M1 (Homo sapiens) (UniProt P11229)
T3 sequence (whole entry): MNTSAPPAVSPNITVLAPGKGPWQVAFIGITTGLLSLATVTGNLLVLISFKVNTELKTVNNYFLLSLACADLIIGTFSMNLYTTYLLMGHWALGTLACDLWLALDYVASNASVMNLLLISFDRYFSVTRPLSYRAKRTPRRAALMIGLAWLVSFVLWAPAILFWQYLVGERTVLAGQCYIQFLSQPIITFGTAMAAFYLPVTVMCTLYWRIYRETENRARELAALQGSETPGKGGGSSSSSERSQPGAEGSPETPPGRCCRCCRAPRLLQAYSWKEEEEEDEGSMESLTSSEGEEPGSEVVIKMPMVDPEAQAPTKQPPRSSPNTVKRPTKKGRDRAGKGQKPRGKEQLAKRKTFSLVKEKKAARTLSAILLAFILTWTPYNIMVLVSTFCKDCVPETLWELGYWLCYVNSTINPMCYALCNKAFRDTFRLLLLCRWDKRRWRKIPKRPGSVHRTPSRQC

[11] = target: 5-hydroxytryptamine receptor 2A (Homo sapiens, UniProt P28223)
5-hydroxytryptamine receptor 2A, sequence (P28223 whole entry): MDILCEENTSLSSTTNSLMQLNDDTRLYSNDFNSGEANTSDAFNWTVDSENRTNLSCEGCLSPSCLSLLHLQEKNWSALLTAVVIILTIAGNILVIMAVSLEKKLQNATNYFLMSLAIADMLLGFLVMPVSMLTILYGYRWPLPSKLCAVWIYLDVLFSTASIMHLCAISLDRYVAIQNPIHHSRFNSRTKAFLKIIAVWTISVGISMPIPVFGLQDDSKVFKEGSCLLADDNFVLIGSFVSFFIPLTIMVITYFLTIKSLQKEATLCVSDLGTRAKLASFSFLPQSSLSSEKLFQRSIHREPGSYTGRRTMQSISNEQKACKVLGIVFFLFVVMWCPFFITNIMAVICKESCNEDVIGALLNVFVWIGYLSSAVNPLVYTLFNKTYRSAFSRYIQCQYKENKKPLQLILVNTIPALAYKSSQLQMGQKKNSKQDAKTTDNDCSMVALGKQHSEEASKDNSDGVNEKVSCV

[12] = target: T4, 5-hydroxytryptamine receptor 1A (Homo sapiens) (UniProt P08908)
T4 sequence (whole entry): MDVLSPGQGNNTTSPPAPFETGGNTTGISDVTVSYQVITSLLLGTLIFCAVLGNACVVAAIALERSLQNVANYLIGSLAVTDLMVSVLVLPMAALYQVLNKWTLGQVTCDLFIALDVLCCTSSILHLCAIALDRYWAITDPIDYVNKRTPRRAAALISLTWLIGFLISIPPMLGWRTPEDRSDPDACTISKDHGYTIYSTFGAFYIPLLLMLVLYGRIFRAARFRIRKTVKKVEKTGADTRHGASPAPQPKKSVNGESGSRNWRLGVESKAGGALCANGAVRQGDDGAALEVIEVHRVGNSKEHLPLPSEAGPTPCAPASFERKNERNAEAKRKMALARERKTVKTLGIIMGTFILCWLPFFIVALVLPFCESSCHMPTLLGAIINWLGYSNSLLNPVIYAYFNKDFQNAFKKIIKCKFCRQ

[13] = target: D(4) dopamine receptor (Homo sapiens) (UniProt P21917)
D(4) dopamine receptor (Homo sapiens), sequence (P21917 whole entry): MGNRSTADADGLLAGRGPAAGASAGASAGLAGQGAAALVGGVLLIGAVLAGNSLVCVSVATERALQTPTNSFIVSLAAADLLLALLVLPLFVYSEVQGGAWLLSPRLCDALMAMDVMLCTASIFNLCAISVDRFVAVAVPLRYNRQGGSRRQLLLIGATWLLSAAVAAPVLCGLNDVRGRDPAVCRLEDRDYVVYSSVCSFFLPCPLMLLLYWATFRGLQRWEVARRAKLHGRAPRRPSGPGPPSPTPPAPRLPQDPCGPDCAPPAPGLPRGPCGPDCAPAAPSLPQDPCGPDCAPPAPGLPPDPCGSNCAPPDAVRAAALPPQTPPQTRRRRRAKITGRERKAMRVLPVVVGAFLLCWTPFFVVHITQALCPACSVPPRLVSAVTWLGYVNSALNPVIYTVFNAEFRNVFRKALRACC

[14] = target: Glucocorticoid receptor (Homo sapiens) (UniProt P04150)
[15] = target: D(2) dopamine receptor (Homo sapiens) (UniProt P14416)
D(2) dopamine receptor (Homo sapiens), sequence (P14416 whole entry): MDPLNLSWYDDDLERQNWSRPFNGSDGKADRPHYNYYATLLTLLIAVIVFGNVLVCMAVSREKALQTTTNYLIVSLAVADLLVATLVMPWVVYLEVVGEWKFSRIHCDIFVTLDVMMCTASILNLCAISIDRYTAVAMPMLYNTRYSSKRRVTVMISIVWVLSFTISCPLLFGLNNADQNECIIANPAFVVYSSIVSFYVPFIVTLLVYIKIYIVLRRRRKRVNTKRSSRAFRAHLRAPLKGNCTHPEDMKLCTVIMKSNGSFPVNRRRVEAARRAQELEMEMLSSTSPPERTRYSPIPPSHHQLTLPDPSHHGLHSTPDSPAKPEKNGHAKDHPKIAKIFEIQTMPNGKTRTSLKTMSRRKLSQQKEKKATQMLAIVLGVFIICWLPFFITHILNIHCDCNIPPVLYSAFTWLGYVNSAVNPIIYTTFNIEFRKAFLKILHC

Sodium-dependent serotonin transporter (Homo sapiens), sequence (P31645 whole entry, looked up): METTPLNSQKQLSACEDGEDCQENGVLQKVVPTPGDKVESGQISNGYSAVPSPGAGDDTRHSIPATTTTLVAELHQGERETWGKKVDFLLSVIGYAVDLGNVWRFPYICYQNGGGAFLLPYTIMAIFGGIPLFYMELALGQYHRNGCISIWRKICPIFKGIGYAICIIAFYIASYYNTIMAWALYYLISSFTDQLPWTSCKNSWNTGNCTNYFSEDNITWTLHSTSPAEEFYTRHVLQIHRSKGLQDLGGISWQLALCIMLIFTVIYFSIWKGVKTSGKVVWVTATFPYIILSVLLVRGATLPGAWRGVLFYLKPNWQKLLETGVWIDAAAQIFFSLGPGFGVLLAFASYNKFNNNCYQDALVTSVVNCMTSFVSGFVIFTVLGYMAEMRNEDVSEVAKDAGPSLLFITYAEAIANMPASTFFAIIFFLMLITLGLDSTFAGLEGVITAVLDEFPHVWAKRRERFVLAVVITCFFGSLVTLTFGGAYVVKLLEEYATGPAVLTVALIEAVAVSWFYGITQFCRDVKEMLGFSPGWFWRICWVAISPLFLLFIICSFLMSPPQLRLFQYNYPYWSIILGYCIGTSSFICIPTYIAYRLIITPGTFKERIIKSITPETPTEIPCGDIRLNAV
Sigma intracellular receptor 2 (Homo sapiens), sequence (Q5BJF2 whole entry): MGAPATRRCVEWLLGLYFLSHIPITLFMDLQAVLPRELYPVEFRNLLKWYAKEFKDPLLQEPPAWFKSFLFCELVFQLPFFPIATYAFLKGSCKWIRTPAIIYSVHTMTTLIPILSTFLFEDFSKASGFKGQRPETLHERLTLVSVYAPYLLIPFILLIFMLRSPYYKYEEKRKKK
Beta-3 adrenergic receptor (Homo sapiens), sequence (P13945 whole entry, looked up): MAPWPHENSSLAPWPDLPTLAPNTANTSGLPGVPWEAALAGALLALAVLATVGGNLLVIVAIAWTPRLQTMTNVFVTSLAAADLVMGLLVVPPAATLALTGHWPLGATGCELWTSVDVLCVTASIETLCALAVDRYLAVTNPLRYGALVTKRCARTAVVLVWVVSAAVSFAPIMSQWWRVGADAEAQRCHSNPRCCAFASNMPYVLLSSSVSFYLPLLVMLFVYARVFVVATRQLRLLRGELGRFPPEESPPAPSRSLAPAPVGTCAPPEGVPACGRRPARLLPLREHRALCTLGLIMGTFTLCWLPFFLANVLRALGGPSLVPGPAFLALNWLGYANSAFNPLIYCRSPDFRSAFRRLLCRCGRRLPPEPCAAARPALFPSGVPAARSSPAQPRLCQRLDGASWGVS

Row | inhibition [15] [%] | Compound | inhibition [1] [%] | inhibition (Rattus norvegicus) [%] | inhibition [2] [%] | inhibition [3] [%] | inhibition [4] [%] | inhibition [5] [%] | inhibition [6] [%] | inhibition [7] [%] | inhibition [8] [%] | inhibition [9] [%] | inhibition [10] [%] | inhibition [11] [%] | inhibition [12] [%] | inhibition [13] [%] | inhibition [14] [%]
1 |  | O[C@]1(C(F)(F)F)CCCC[C@H]1Nc1ccc(F)cc1 [BAY-390] | -0.01 | 2.79 | 8.95 | 31 | 13.9 | 20.2 | 6.05 | -2.71 | -7 | 8.7 | 8.3 | 69.4 | -1.95 | -4.08 | 4
2 | -4.34 | COc1cc(N[C@@H]2CCCC[C@]2(O)C(F)(F)F)ccc1F [BAY-9897] | 15.6 | -1.71 | 27.8 | 34.2 | -3.95 | -0.24 | 10.3 | 3.81 |  | 0.41 | 18.5 | 1 | 6.99 | 6.32 | 
